Measured values taken from US10034836B2, “Formulations of guanylate cyclase C agonists and methods of use” (SYNERGY PHARMACEUTICALS, INC., priority 2008, dated 2018).
Where a SMILES comes first, the peptide text is derived from it. Bridges are numbered along the chain shown (N, C = ends).

Legend:
cynomolgus monkeys = experiment: Repeated daily oral dose for 28 days in cynomolgus monkeys, stool consistency; conditions: cynomolgus monkey, in vivo, 10 mg/kg
Experimental: FIG. 19: Determination of SP-304 dose that produced diarrhea in monkeys. Two groups of monkeys, male and female, were treated with a single dose of SP-304 per day continuously for 28 days (for each group, 0 and 75 mg/kg, n=5; 1, 10 mg/kg, n=4). Stool consistency and bowel frequency were noted every day. Results are presented as cumulative score for 28 days. The scoring used for stool consistency was as follows: 0: No stool, 1: Normal stool, 2: Loose/mushy stool and 3: Diarrhea/watery stool.
Male (n=4) and female (n=4) monkeys were given a daily dose (1 or 10 or 75 mg/kg body weight) of SP-304 repeatedly for 28 days. Effect of treatment on stool consistency was recorded three times a day. […] Therefore, SP-304 was used at 10 mg/kg body weight in the subsequent experiments.

[1] = tested on: healthy male and female subjects; conditions: in vivo, po
[2] = Stability in simulated intestinal fluid (SIF), HPLC analysis; type: in vitro ADME
Experimental: FIG. 2B: HPLC chromatographic spectra of SP-304 samples after incubation with: (A) heat-inactivated SIF for 300 minutes, or (B) SIF for 120 minutes. The arrows show the elution position of SP-304.
FIGS. 7D-1-7D-2: HPLC chromatograms of SP-304 incubated for 0 min in SIF (FIG. 7D-1) and 60 min in SIF (FIG. 7D-2), respectively. The arrows indicate the elution positions of the parent SP-304 peptides. […] These new peptide peaks represent degradation products of SP-304.
FIGS. 7E-1-7-E2: HPLC chromatograms of SP-332 incubated for 0 min in SIF (FIG. 7E-1) and 120 min in SIF (FIG. 7E-2), respectively. The arrows indicate the elution positions of the parent SP-332 peptides.
FIGS. 7F-1-7F-2: HPLC chromatograms of SP-333 incubated for 0 min in SIF (FIG. 7F-1) and 120 min in SIF (FIG. 7F-2), respectively. The arrows indicate the elution positions of the parent SP-333 peptides.
FIGS. 7G-1-7G-5: Incubation of SP-333 with SIF for 2, 6, 12 and 24 hrs. Effect of SIF digestion on the activity of SP-333 in T84 stimulation assay was determined (FIG. 7G-1) and samples were also analyzed by HPLC (FIGS. 7G2-5). The elution positions of the parent peptide and its metabolites are indicated by arrows.
The physical stability of SP-304 peptide exposed to SIF was evaluated by HPLC using the method described for SGF digestion. […]

[3] = type: in vitro ADME; conditions: pH 2
Experimental: FIG. 1A: Biological activity of SP-304 incubated for varying lengths of time in simulated gastric fluid (SGF). The biological activity of SP-304 was determined by measuring its ability to stimulate cGMP synthesis in T84 cells. Samples incubated for 0, 15, 30, 60, 90 and 120 minutes, respectively, were collected and analyzed for biological activity—with activity of the 0 min sample defined as 100% biological activity. The activities of the other samples are shown as percentage activity relative to the 0 min activity sample. Data points shown are the average of triplicate measurements±SD.
The stability of SP-304 in the presence of simulated gastric fluid (SGF) was determined by biological activity measurements and HPLC analyses (FIGS. 1A & 1B). SP-304 (final concentration of 8.5 mg/ml) was incubated in SGF (Proteose peptone (8.3 g/liter; Difco), D-Glucose (3.5 g/liter; Sigma), NaCl (2.05 g/liter; Sigma), KH2PO4 (0.6 g/liter; Sigma), CaCl2 (0.11 g/liter), KCl (0.37 g/liter; Sigma), Porcine bile (final 1× concentration 0.05 g/liter; Sigma) in PBS, Lysozyme (final 1× concentration 0.10 g/liter; Sigma) in PBS, Pepsin (final 1× concentration 0.0133 g/liter; Sigma) in PBS). SGF was made on the day of the experiment and the pH was adjusted to 2.0±0.1 using HCl or NaOH as necessary. After the pH adjustment, SGF is filter sterilized with 0.22 μm membrane filters. […]

CC(C)C[C@H](NC(=O)[C@@H]1CSSC[C@@H]2NC(=O)[C@H](CC(C)C)NC(=O)[C@H](CCC(=O)O)NC(=O)[C@@H](NC(=O)[C@H](CCC(=O)O)NC(=O)[C@H](CC(=O)O)NC(=O)[C@@H](N)CC(N)=O)CSSC[C@H](NC(=O)[C@H](C)NC(=O)[C@H](C(C)C)NC(=O)[C@H](CC(N)=O)NC(=O)[C@H](C(C)C)NC2=O)C(=O)N[C@@H]([C@@H](C)O)C(=O)NCC(=O)N1)C(=O)O [SP-304, Asn^1-Asp^2-Glu^3-Cys^4-Glu^5-Leu^6-Cys^7-Val^8-Asn^9-Val^10-Ala^11-Cys^12-Thr^13-Gly^14-Cys^15-Leu^16] (H-NDECELCVNVACTGCL-OH; disulfide 4-12, 7-15)
effect on stool consistency in females (cynomolgus monkeys): severe diarrhea consistently | most prevalent adverse event: grade I diarrhea (CTCAE) [1]: 12.7% | HPLC analysis after incubation with heat-inactivated SIF [2]: remained intact | activity after exposure to the acidic pH of the SGF [3]: unaltered | biological activity after incubation with SGF (breakdown in SGF) [3]: resistant to breakdown in SGF
